Several values for one entry are separate records, joined by “and”; a condition that tells them apart may be missing. Equal entries are not always repeated.
What was measured:
CSK = CSK (Homo sapiens, UniProt P41240); experiment: biochemical; settings: read-out: % enzyme activity, 1 μM; Run 1, Run 2
PKAcb = PKAcb (Homo sapiens, UniProt P22694); experiment: biochemical; settings: read-out: % enzyme activity, 1 μM; Run 1, Run 2
ARAF = target: T1, ARAF (Homo sapiens, UniProt P10398); experiment: biochemical; settings: read-out: % enzyme activity, 1 μM; Run 1, Run 2
T1 sequence (P10398 1-606): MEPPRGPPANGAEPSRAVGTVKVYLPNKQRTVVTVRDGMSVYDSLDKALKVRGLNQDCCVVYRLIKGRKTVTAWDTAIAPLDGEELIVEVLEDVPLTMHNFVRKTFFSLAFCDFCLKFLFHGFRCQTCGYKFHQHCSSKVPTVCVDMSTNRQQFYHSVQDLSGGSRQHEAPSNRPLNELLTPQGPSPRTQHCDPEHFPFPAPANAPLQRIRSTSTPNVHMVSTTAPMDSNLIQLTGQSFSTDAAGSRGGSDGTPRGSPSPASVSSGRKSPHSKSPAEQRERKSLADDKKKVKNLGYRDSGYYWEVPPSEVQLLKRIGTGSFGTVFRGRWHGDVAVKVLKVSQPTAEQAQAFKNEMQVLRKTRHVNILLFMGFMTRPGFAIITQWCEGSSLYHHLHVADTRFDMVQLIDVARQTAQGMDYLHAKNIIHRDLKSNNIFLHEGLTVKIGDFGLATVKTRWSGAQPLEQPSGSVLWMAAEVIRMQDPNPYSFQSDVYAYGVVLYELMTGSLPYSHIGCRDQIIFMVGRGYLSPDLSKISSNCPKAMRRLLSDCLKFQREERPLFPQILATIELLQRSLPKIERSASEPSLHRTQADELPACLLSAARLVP

SRPK1 = SRPK1 (Homo sapiens, UniProt Q96SB4); settings: 1 μM; Run 1, Run 2
PASK = PASK (Homo sapiens, UniProt Q96RG2); settings: 1 μM; Run 1, Run 2
LIMK1 = LIMK1 (Homo sapiens, UniProt P53667); experiment: biochemical; settings: read-out: % enzyme activity, 1 μM; Run 1, Run 2
NEK8 = target: T2, NEK8 (Homo sapiens, UniProt Q86SG6); settings: 1 μM; Run 1, Run 2
T2 sequence (Q86SG6 1-692): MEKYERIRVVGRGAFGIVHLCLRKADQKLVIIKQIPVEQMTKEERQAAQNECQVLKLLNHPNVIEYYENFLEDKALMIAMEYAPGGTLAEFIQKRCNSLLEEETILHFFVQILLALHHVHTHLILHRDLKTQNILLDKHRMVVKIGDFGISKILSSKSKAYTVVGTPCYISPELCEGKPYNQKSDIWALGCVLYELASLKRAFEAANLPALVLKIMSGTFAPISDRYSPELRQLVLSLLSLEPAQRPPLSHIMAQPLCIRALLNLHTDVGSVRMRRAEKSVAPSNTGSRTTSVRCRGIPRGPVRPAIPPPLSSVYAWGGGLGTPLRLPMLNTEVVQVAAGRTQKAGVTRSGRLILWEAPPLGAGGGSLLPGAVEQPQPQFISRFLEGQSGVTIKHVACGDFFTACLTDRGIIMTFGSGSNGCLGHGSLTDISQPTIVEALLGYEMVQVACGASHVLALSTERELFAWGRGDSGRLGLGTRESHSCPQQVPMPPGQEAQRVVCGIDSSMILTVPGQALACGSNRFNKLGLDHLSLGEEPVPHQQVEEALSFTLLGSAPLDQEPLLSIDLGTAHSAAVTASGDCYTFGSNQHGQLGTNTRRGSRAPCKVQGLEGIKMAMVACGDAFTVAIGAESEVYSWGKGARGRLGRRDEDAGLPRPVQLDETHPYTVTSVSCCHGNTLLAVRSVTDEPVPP

EPHB1 = target: T3, EPHB1 (Homo sapiens, UniProt P54762); settings: 1 μM; Run 1, Run 2
T3 sequence (P54762 18-984): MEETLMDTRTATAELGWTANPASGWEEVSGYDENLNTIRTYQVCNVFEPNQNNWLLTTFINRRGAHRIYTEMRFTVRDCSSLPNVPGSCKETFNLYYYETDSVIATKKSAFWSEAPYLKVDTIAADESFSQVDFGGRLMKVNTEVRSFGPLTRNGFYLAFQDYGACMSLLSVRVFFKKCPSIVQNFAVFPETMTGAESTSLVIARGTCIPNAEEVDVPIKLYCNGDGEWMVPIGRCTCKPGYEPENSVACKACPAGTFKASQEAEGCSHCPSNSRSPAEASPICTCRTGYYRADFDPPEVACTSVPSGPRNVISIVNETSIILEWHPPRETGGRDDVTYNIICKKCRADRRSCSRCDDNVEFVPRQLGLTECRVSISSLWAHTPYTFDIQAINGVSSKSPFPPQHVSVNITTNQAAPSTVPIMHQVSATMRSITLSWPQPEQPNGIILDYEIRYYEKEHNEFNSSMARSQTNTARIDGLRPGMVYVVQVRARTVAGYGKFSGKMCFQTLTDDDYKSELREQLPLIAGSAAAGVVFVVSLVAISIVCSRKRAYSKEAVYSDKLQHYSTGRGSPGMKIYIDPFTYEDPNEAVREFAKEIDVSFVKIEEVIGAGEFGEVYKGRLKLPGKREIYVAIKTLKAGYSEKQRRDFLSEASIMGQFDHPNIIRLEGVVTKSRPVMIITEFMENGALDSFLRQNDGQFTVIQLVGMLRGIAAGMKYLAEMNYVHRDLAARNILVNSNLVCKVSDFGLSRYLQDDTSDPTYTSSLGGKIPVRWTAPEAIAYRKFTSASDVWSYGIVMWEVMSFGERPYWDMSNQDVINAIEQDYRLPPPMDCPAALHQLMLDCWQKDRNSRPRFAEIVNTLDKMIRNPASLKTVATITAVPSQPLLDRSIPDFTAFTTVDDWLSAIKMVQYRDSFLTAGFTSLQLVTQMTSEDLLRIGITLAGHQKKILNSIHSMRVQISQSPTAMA

CSK, sequence (P41240 whole entry): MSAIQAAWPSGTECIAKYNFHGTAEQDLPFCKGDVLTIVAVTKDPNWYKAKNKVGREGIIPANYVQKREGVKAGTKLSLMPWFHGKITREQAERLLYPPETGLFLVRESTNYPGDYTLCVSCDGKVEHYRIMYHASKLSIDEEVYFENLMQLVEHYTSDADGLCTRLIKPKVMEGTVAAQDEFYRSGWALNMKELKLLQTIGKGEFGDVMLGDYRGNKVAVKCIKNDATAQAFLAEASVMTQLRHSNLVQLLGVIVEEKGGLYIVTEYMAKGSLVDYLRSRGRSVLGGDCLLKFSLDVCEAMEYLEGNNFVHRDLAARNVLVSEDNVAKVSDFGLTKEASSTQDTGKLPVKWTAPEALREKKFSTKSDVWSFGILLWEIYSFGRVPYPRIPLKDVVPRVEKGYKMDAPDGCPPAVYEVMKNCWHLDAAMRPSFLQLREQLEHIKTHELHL
PASK, sequence (Q96RG2 whole entry): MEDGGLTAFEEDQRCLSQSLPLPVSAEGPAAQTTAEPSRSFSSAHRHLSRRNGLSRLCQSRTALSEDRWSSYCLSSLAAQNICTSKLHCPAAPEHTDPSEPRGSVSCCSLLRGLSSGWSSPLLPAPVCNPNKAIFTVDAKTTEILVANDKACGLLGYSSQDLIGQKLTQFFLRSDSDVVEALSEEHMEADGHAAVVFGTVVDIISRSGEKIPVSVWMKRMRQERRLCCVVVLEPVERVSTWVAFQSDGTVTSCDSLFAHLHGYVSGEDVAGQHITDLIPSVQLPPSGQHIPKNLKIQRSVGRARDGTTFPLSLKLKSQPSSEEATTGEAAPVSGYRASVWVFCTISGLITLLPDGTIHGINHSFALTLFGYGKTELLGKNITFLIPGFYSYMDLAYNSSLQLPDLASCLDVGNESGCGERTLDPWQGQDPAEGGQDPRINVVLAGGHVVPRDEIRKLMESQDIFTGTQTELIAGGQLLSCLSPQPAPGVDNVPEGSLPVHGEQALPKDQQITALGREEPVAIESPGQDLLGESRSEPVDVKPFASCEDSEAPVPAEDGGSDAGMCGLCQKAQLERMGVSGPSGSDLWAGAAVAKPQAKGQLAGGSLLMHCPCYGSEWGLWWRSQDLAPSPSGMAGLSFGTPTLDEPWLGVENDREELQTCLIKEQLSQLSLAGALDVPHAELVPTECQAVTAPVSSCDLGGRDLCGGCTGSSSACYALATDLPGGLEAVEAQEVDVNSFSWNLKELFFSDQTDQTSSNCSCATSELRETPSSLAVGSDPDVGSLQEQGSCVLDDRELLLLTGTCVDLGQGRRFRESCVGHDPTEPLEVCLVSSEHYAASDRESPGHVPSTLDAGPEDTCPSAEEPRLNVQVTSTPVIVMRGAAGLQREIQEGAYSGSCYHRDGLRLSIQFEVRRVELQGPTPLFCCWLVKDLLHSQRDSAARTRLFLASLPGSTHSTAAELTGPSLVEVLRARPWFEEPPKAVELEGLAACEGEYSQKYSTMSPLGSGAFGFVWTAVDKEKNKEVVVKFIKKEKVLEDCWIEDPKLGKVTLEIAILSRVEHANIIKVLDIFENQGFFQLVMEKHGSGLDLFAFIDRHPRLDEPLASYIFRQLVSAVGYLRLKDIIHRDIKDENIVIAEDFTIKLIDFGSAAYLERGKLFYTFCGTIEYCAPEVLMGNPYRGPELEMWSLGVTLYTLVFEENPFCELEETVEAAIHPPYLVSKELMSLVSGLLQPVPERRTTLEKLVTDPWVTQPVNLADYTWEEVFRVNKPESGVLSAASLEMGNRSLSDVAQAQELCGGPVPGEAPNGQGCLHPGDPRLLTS
LIMK1, sequence (P53667 whole entry): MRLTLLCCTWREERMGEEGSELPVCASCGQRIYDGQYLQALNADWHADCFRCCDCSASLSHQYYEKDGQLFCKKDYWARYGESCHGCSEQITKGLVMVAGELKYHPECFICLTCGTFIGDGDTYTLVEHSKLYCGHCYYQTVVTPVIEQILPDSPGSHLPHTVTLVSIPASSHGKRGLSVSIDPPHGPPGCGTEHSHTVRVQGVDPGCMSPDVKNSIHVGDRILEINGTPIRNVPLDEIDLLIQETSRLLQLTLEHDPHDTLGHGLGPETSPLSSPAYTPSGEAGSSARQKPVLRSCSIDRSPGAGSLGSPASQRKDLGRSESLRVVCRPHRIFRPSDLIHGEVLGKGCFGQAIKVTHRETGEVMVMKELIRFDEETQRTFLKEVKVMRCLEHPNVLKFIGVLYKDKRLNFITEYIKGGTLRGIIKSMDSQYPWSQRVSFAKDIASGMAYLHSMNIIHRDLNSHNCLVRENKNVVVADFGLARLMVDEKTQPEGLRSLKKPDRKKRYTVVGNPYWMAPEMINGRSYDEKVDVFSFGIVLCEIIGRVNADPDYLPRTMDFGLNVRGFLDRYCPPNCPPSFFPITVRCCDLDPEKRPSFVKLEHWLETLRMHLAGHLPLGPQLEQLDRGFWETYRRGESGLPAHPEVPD
SRPK1, sequence (Q96SB4 whole entry): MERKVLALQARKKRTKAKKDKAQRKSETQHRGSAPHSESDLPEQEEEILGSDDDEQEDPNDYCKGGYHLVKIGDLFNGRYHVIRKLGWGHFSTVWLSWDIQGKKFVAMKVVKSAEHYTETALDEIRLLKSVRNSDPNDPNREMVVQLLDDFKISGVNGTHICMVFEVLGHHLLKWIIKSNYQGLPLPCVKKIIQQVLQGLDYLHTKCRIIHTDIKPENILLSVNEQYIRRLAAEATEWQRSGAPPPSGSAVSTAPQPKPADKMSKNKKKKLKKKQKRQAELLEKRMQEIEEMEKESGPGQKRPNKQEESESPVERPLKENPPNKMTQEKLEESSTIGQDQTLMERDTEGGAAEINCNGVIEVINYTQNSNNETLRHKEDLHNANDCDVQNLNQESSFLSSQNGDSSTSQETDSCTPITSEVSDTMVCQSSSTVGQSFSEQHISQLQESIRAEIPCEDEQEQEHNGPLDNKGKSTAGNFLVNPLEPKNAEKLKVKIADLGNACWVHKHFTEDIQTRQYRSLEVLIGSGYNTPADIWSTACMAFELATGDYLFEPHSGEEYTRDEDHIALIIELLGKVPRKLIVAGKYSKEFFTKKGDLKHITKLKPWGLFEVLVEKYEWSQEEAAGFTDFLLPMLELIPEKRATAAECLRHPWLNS

COc1cc(-c2cncc(-c3ccc(N4CCN(C)CC4)cc3)c2C)cc(F)c1C(N)=O [Compound 26a, 2-Fluoro-6-methoxy-4-(4-methyl-5-(4-(4-methylpiperazin-1-yl)phenyl)pyridin-3-yl)benzamide]
remaining activity at 1 µM (CSK): 99.5%
remaining activity at 1 µM (PKAcb): 96.2%
remaining activity at 1 µM (ARAF): 29.3%
% enzyme activity (SRPK1): 105.40%
% enzyme activity (PASK): 93.23%
% enzyme activity at 1 μM (ALK6/BMPR1B): 18.2% and 17%
remaining activity at 1 µM (LIMK1): 65.1%
% enzyme activity (NEK8): 98.06%
% enzyme activity (EPHB1): 91.99%

COc1cc(-c2cncc(-c3ccc(N4C[C@@H](C)N(C)[C@@H](C)C4)cc3)c2C)cc(F)c1C(N)=O [Compound 26c, 2-Fluoro-6-methoxy-4-(4-methyl-5-(4-((3R,5S)-3,4,5-trimethylpiperazin-1-yl)phenyl)pyridin-3-yl)benzamide]
remaining activity at 1 µM (CSK): 104%
remaining activity at 1 µM (PKAcb): 97.9%
remaining activity at 1 µM (ARAF): 48.1%
% enzyme activity (SRPK1): 81.70%
% enzyme activity (PASK): 98.21%
% enzyme activity at 1 μM (ALK6/BMPR1B): 30.2% and 30.1%
remaining activity at 1 µM (LIMK1): 74.2%
% enzyme activity (NEK8): 106.54%
% enzyme activity (EPHB1): 89.37%

— publication PMC8213057, “Targeting ALK2: An Open Science Approach to Developing Therapeutics for the Treatment of Diffuse Intrinsic Pontine Glioma” (Journal of Medicinal Chemistry, 2020)
